{"source": "patent US20230241185A1", "about": "“COMPOSITION COMPRISING A DNA-DEGRADING ENZYME FOR USE IN A METHOD FOR THE TREATMENT OF IMMUNOSUPPRESSION AFTER ACUTE TISSUE INJURY” (Klinikum der Universität München, priority 2020, published 2023)", "type_in_all_cases": "in vivo, mice", "key": {"splenic CD3^+ T cells [1]": {"test_system": "splenic CD3^+ T cells", "test": "Splenic T cell counts by FACS after experimental stroke", "details": "VX-765 100 mg kg^−1 i.p. 1 h prior to stroke vs vehicle; normalized to sham", "description": "Mice were anaesthetized with isoflurane delivered in a mixture of 30% O2 and 70% N2O. An incision was made between the ear and the eye in order to expose the temporal bone. Mice were placed in supine position, and a laser Doppler probe was affixed to the skull above the middle cerebral artery (MCA) territory. The common carotid artery and left external carotid artery were exposed via midline incision and further isolated and ligated. A 2-mm silicon-coated filament (Doccol) was inserted into the internal carotid artery, advanced gently to the MCA until resistance was felt, and occlusion was confirmed by a corresponding decrease in blood flow (i.e., a decrease in the laser Doppler flow signal by 80%. After 60 minutes of occlusion, the animals were re-anesthetized, and the filament was removed. After recovery, the mice were kept in their home cage with ad libitum access to water and food. Sham-operated mice received the same surgical procedure, but the filament was […] in lieu of being advanced to the MCA. Body temperature was maintained at 37° C. throughout surgery in all mice via feedback-controlled heating pad. The overall mortality rate of animals subjected to MCA occlusion was approximately 20%. All animals in the sham group survived the procedure. Exclusion criteria: 1. Insufficient MCA occlusion (a reduction in blood flow to […] of the baseline value). 2. Death during the surgery. 3. Lack of brain ischemia as quantified post-mortem by histological analysis.\nAnti-IL1β: Mice received two injections of antagonizing anti-IL-1β in sterile saline (clone: B122, InVivoMab, BioXcell, US), 1 hour prior to and 1 hour after surgery. Anti-IL-1β or the corresponding IgG control (Armenian hamster IgG, InVivoMab, BioXcell, US) was injected i.p. at a dose of 4 mg kg^−1 body weight in a final volume of 200 μl.\nAnti-FasL: Mice received two injections of antagonizing anti-FasL in sterile saline (clone: MFL3, InVivoMab, BioXcell, US), 1 hour prior to and 1 hour after surgery. […]"}, "CD45^+ splenocytes [2]": {"test_system": "CD45^+ splenocytes", "test": "CD45+ splenocyte counts (spleen cellularity) by FACS after experimental stroke", "details": "VX-765 100 mg kg^−1 i.p. 1 h prior to stroke vs vehicle; normalized to sham", "description": "(§1) Mice were anaesthetized with isoflurane delivered in a mixture of 30% O2 and 70% N2O. An incision was made between the ear and the eye in order to expose the temporal bone. Mice were placed in supine position, and a laser Doppler probe was affixed to the skull above the middle cerebral artery (MCA) territory. The common carotid artery and left external carotid artery were exposed via midline incision and further isolated and ligated. […] Lack of brain ischemia as quantified post-mortem by histological analysis. […]\n(§2) The anti-mouse antibodies listed below (see Table 1) were used for surface marker staining of CD45^+ leukocytes, CD45^+CD11b^+ monocytes (+FasL^+ expression), CD3^+ T cells, CD3^+CD4^+ Thelper cells, CD3^+CD8^+ Tcytotox cells and CD19^+ B cells (for representative gating strategy, see FIG. 10A). […] Flow cytometric data was acquired using a BD FACSverse flow cytometer (BD Biosciences) and analyzed using FlowJo software (Treestar)."}, "[3]": {"test": "Infarct volumetry after stroke", "details": "VX-765 vs control treatment; 18 h after stroke", "description": "as §1\nMice were euthanized by overdose of ketamine-xylazine and perfused intracardially with normal saline. […] Infarct area of each section was assessed by ImageJ software (NIH). […] The total infarct volume was determined by integrating measured areas and distances between sections."}, "splenic CD3^+ T cells [4]": {"test_system": "splenic CD3^+ T cells", "test": "Splenic T cell counts by FACS after burn injury", "details": "VX-765 100 mg kg^−1 i.p. 1 h prior to burn injury vs vehicle; normalized to sham", "experimental": "(§3) Male C57Bl/6J mice (Charles River, Freiburg, Germany), aged 7-8 weeks, received a 35% total body surface area (TBSA) full thickness scald burn to the back through 10 seconds immersion in 98° C. water under deep anesthesia with 2% isoflurane and analgesia with 0.1 mg kg^−1 buprenorphine. Immediately after burn injury, the mice were resuscitated with 2 ml of lactated Ringer's solution (Baxter, Unterschleißheim, Germany) via i.p. injection as previously described (Hundeshagen et al., 2018; Bohannon et al., 2008; Toliver-Kinsky et al., 2005). Animals in the sham burn group were subjected to identical treatment except for water temperature during immersion being 36 C. Following burn injury or sham burn, mice were singly housed at room temperature (21° C.). […]\nas §2"}, "CD45^+ splenocytes [5]": {"test_system": "CD45^+ splenocytes", "test": "CD45+ splenocyte counts by FACS after burn injury", "details": "VX-765 100 mg kg^−1 i.p. 1 h prior to burn injury vs vehicle; normalized to sham", "experimental": "as §3, §2"}, "S. pneumoniae": {"test_system": "S. pneumoniae", "test": "Post-stroke intranasal bacterial infection, CFU burden in trachea", "details": "VX765 vs control; 10^6 CFU S. pneumoniae intranasally 12 h after stroke; CFU 14 h later", "description": "as §1\nS. pneumoniae TIGR4, an encapsulated strain of serotype 4, was grown overnight on Columbia blood agar plates (37° C., 5% CO2), single colonies were cultured in Todd-Hewitt broth with 1% yeast extract to mid-logarithmic phase (OD600 nm: 0.35), washed, and diluted in sterile PBS to the desired concentration. […] Serial dilutions of lung and tracheal tissue homogenates were plated onto blood agar plates and CFU were determined after 16 h of incubation."}, "K. pneumoniae": {"test_system": "K. pneumoniae", "test": "Post-stroke intranasal bacterial infection, CFU burden in lung", "details": "VX765 vs control; 2×10^5 CFU K. pneumoniae intranasally 12 h after stroke; CFU 14 h later"}}, "note": "Entries after “also recorded” stand apart in the source; their conditions may differ."}
{"smiles": "CCO[C@@H]1OC(=O)C[C@@H]1NC(=O)[C@@H]1CCCN1C(=O)[C@@H](NC(=O)c1ccc(N)c(Cl)c1)C(C)(C)C", "note": "[VX-765, Belnacasan]", "values": [{"measurement": "splenic CD3+ T cell counts (survival)", "setting": "splenic CD3^+ T cells [1]", "result": "improved T cell survival; also recorded: improved survival after VX-765 treatment compared to control"}, {"measurement": "overall CD45+ splenocyte counts (spleen cellularity)", "setting": "CD45^+ splenocytes [2]", "result": "improved T cell survival and spleen cellularity; also recorded: improved survival after VX-765 treatment compared to control"}, {"measurement": "infarct volume (primary lesion size)", "setting": "[3]", "result": "neither genetic nor pharmacological caspase-1 deficiency had a significant effect on the primary lesion size; also recorded: No significant difference in infarct volume between groups"}, {"measurement": "splenic CD3+ T cell counts (survival)", "setting": "splenic CD3^+ T cells [4]", "result": "improved T cell survival; also recorded: improved survival after VX-765 treatment compared to control"}, {"measurement": "overall CD45+ splenocyte counts (spleen cellularity)", "setting": "CD45^+ splenocytes [5]", "result": "improved T cell survival and spleen cellularity; also recorded: improved survival after VX-765 treatment compared to control"}, {"measurement": "bacterial load (CFU) in trachea", "setting": "S. pneumoniae", "result": "reduced post-injury bacterial load comparable to sham-operated group"}, {"measurement": "bacterial load (CFU) in lung", "setting": "K. pneumoniae", "result": "reduced post-injury bacterial load comparable to sham-operated group"}]}
